Patent publication US12703706B2, “Anthelmintic compounds comprising a thienopyridine structure” (Intervet Inc., priority 2020, dated 2026)

Experiments:
Haemonchus contortus = test: In vivo efficacy against Haemonchus contortus in jirds; settings: in Meriones unguiculatus, 72 h, read-out: reduction of the Haemonchus contortus count
Description: In Vivo Assay: Efficacy Against Haemonchus contortus in Jirds
The jirds were orally infected with approximately 1500 third-stage larvae of Haemonchus contortus. Ten days after infection, the jirds in the treatment groups were treated once either orally or subcutaneously with compounds at a dose of 10 mg per kg bodyweight. For treatment, compounds were dissolved in a mixture of 10% Transcutol, 10% Cremophor EL and 80% physiological sodium chloride solution. Three days after treatment, the jirds were necropsied, and the larvae burden in the stomach was determined. The efficacy was defined as the reduction of the mean larvae count in the infected jirds of the treatment group in comparison to the infected jirds in an untreated control group (negative control).

[1] = molecular target: human Maxi K channel (BK channel), KCNMA1 (KCa1.1) and beta1 (KCNMB1) subunits (Homo sapiens, UniProt Q12791)
Description: In Vitro Assay: Agonistic Activity at the Human Maxi K Channel (BK Channel)
A CHO K1 cell line was stably transfected with the KCNMA1 (KCa1.1, U11058) and betal (KCNMB1) subunits of the human Maxi K channel (Ponte et al, Molecular Pharmacology 2012, 81(4), 567-577).
Cells were seeded in microtiter plates (black 384-well MTP, clear bottom) in a concentration of 20,000 cells/well in 25 μl medium and cultured for 20 to 24 hours at 37° C. and 5% CO2. After incubation, 25 μl of FMP-dye Blue-Tyrode's was added to each well and incubated at room temperature for 30 min. Ten minutes after addition of 12.5 μl compound solution, the plates are transferred to the FLIPR for measurement.
For the membrane potential measurements, plates were placed in the FLIPR Penta (Molecular Devices). The baseline measurement of the fluorescence was stared for 20 sec (Exc. 510-545 nm, Emm. 565-625 nm). Potential channel opening measurement was started by addition of 25 μl KCl-Tyrode (final assay concentration of the KCl-Tyrode: 70 mM KCl, 2 mM CaCl2, 1 mM MgCl2, 0.8 mM NaH2PO4, 5 mM Glucose, 28 mM Hepes, pH 7.4, including the voltage sensitive dye). The complete measurement takes 150 s.
EC50 values were determined in triplicate utilizing compound dilution series. The data were determined at least in two independent tests. The data were proceeded by using the ActivityBase XE Runner software (IDBS) for curve fitting and calculation of the half-maximal effective concentration.

[2] = tested on: D. immitis microfilaria (L1); test: In vitro assay Dirofilaria immitis L1, motility of microfilaria; assay type: cell-based; settings: 72 h, read-out: EC50 value, Dirofilaria immitis L1, reduction in motility vs DMSO, incubation 3 days
[3] = tested on: A. viteae microfilaria (L1); test: In vitro assay Acanthocheilonema viteae L1, motility of microfilaria; settings: 72 h, read-out: EC50 value, Acanthocheilonema viteae L1, reduction in motility vs DMSO, incubation 3 days
Description: Approximately 500 A. viteae microfilaria were added to a microtiter plate containing a nutrient medium and the test compound in DMSO at varying concentrations. After incubation for 3 days, activity was evaluated as reduction in motility as compared to DMSO as negative control.
Compounds were tested in duplicates. Based on the concentration response curves EC50 values were calculated.

human Maxi K channel (BK channel), KCNMA1 (KCa1.1) and beta1 (KCNMB1) subunits, sequence (Q12791 1-1178 isoform Q12791-5): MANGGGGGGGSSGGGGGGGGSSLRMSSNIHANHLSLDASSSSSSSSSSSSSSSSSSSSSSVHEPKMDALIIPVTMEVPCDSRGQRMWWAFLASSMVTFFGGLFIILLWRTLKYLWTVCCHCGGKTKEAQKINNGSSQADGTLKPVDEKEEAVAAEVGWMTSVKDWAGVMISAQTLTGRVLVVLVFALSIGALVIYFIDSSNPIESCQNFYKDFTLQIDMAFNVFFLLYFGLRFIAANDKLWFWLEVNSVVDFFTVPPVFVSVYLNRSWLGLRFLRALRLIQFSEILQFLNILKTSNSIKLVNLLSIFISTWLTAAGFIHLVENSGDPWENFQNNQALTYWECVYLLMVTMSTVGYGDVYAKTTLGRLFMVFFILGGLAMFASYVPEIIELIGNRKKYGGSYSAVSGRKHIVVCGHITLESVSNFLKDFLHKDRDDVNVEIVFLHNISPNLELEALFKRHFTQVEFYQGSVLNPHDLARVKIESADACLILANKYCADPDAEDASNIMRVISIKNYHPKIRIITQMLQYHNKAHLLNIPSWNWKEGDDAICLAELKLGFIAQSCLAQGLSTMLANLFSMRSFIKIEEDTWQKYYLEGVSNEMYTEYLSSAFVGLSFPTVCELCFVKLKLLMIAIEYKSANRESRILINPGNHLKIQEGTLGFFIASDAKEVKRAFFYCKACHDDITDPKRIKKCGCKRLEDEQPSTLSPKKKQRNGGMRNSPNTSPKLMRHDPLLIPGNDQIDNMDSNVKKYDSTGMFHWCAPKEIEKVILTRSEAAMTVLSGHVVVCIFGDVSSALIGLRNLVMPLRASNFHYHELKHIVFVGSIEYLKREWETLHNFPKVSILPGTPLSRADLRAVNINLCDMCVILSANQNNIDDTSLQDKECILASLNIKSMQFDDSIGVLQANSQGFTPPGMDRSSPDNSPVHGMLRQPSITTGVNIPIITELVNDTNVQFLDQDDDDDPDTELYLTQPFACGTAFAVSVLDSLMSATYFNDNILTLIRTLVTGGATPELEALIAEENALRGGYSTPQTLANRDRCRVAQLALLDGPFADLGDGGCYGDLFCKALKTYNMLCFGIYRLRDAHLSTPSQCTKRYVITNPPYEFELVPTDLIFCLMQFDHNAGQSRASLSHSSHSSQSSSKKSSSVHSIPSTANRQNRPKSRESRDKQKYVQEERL
human Maxi K channel (BK channel), KCNMA1 (KCa1.1) and beta1 (KCNMB1) subunits, sequence (Q16558 whole entry partner): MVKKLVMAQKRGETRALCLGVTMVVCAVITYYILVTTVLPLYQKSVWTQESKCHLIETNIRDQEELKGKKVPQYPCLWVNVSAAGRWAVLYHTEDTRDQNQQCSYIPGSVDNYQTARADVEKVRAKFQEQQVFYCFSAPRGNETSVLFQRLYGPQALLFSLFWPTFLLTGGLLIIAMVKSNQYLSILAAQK

Structure (SMILES)	EC50 [1] [µM]	other results
CN(C)c1c(C(=O)N[C@H]2CCOc3ccccc32)cnc2c(-c3cccc(Cl)c3Cl)csc12 [Compound 10]	> 30	inhibition in vivo at 10 mg/kg (Haemonchus contortus): ≥ 80%
O=C(Nc1cccc2ccccc12)c1cnc2c(-c3cccc(Cl)c3Cl)csc2c1N1CCOCC1 [Compound 14]	> 30	EC50 [2]: < 10 µM
CN1CCN(c2c(C(=O)N[C@H]3CCOc4ccccc43)cnc3c(-c4cccc(Cl)c4Cl)csc23)CC1 [Compound 17]	> 30	EC50 [2]: < 10 µM; EC50 [3]: < 10 µM
Cc1sc2c(N(C)C)c(C(=O)N[C@H]3CCOc4ccccc43)cnc2c1-c1cccc(Cl)c1Cl [Compound 36, (S)—N-(chroman-4-yl)-3-(2,3-dichlorophenyl)-7-dimethylamino-2-methylthieno[3,2-b]pyridine-6-carboxamide]	> 30	inhibition in vivo at 10 mg/kg (Haemonchus contortus): ≥ 80%
Cc1sc2c(N(C)C)c(C(=O)N[C@H]3CCOc4ccccc43)cnc2c1-c1cc(Cl)cc(Cl)c1 [Compound 53]	> 30	inhibition in vivo at 10 mg/kg (Haemonchus contortus): ≥ 80%
Cc1sc2c(N3CC(F)(F)C3)c(C(=O)N[C@H]3CCOc4ccccc43)cnc2c1-c1cccc(Cl)c1Cl [Compound 56]	> 30	inhibition in vivo at 10 mg/kg (Haemonchus contortus): ≥ 80%
Cc1sc2c(N3CC(F)(F)C3)c(C(=O)N[C@H]3CCOc4ccccc43)cnc2c1-c1cc(Cl)cc(Cl)c1 [Compound 59]	> 30	
Cc1sc2c(N3CC(F)(F)C3)c(C(=O)N[C@H]3CCc4ccccc43)cnc2c1-c1cc(Cl)cc(Cl)c1 [Compound 60]	> 30	
Cc1sc2c(N3CC(F)C3)c(C(=O)N[C@H]3CCCc4ccccc43)cnc2c1-c1cccc(Cl)c1Cl [Compound 61]	> 30	
Cc1sc2c(N3CC(F)C3)c(C(=O)N[C@H]3CCOc4ccccc43)cnc2c1-c1cccc(Cl)c1Cl [Compound 62]	> 30	inhibition in vivo at 10 mg/kg (Haemonchus contortus): ≥ 80%
Cc1sc2c(N3CC(F)C3)c(C(=O)N[C@H]3CCc4ccccc43)cnc2c1-c1cccc(Cl)c1Cl [Compound 63]	> 30	
Cc1sc2c(N3CC(F)C3)c(C(=O)N[C@H]3CCCc4ccccc43)cnc2c1-c1cc(Cl)cc(Cl)c1 [Compound 64]	> 30	
Cc1sc2c(N3CC(F)C3)c(C(=O)N[C@H]3CCOc4ccccc43)cnc2c1-c1cc(Cl)cc(Cl)c1 [Compound 65]	> 30	inhibition in vivo at 10 mg/kg (Haemonchus contortus): ≥ 80%
Cc1sc2c(N3CC(F)C3)c(C(=O)N[C@H]3CCc4ccccc43)cnc2c1-c1cc(Cl)cc(Cl)c1 [Compound 66]	> 30	
Cc1sc2c(N3CCOCC3)c(C(=O)N[C@H]3CCCc4ccccc43)cnc2c1-c1cc(Cl)cc(Cl)c1 [Compound 67]	> 30	
Cc1sc2c(N3CCOCC3)c(C(=O)N[C@H]3CCOc4ccccc43)cnc2c1-c1cc(Cl)cc(Cl)c1 [Compound 68]	> 30	inhibition in vivo at 10 mg/kg (Haemonchus contortus): ≥ 80%
Cc1sc2c(N3CCOCC3)c(C(=O)N[C@H]3CCc4ccccc43)cnc2c1-c1cc(Cl)cc(Cl)c1 [Compound 69]	> 30	
Cc1sc2c(N3CCOCC3)c(C(=O)Nc3cccc4ccccc34)cnc2c1-c1cc(Cl)cc(Cl)c1 [Compound 70]	> 30	
Cc1sc2c(N3CCOCC3)c(C(=O)N[C@H]3CCCc4ccccc43)cnc2c1-c1cccc(Cl)c1Cl [Compound 71]	> 30	
Cc1sc2c(N3CCOCC3)c(C(=O)N[C@H]3CCOc4ccccc43)cnc2c1-c1cccc(Cl)c1Cl [Compound 72]	> 30	inhibition in vivo at 10 mg/kg (Haemonchus contortus): ≥ 80%
Cc1sc2c(N3CCOCC3)c(C(=O)N[C@H]3CCc4ccccc43)cnc2c1-c1cccc(Cl)c1Cl [Compound 73]	> 30	

Structure (SMILES)	EC50 [1] [µM]	other results
Cc1sc2c(N3CCOCC3)c(C(=O)Nc3cccc4ccccc34)cnc2c1-c1cccc(Cl)c1Cl [Compound 74]	> 30	
Cc1cccc(-c2csc3c(N(C)C)c(C(=O)N[C@H]4CCOc5ccccc54)cnc23)c1C [Compound 75]	> 30	
O=C(N[C@H]1CCOc2ccccc21)c1cnc2c(-c3cc(Cl)cc(Cl)c3)csc2c1N1CC(F)(F)C1 [Compound 76]	> 30	
O=C(N[C@H]1CCc2ccccc21)c1cnc2c(-c3cc(Cl)cc(Cl)c3)csc2c1N1CC(F)(F)C1 [Compound 77]	> 30	
CN(C)c1c(C(=O)NC2COc3ccccc32)cnc2c(-c3cccc(Cl)c3Cl)csc12 (centres unmarked) [Compound 78]	> 30	
O=C(NC1COc2ccccc21)c1cnc2c(-c3cccc(Cl)c3Cl)csc2c1N1CCOCC1 (centres unmarked) [Compound 79]	> 30	
O=C(NC1COc2ccccc21)c1cnc2c(-c3cccc(Cl)c3)csc2c1N1CCOCC1 (centres unmarked) [Compound 80]	> 30	EC50 [2]: < 10 µM
O=C(NC1COc2ccccc21)c1cnc2c(-c3cc(Cl)cc(Cl)c3)csc2c1N1CCOCC1 (centres unmarked) [Compound 81]	> 30	
COCCNc1c(C(=O)N[C@H]2CCOc3ccccc32)cnc2c(-c3cc(F)cc(F)c3F)csc12 [Compound 82]	> 30	
O=C(N[C@H]1CCOc2ccccc21)c1cnc2c(-c3cc(F)cc(F)c3)csc2c1N1CCC1 [Compound 83]	> 30	
O=C(N[C@H]1CCOc2ccccc21)c1cnc2c(-c3cc(F)cc(F)c3F)csc2c1N1CCC1 [Compound 84]	> 30	
O=C(N[C@H]1CCOc2ccccc21)c1cnc2c(-c3cccc(F)c3F)csc2c1N1CCC1 [Compound 85]	> 30	
O=C(N[C@H]1CCOc2ccccc21)c1cnc2c(-c3cc(F)cc(F)c3)csc2c1NC1CC1 [Compound 86]	> 30	
O=C(N[C@H]1CCOc2ccccc21)c1cnc2c(-c3cccc(F)c3F)csc2c1NC1CC1 [Compound 87]	> 30	
O=C(N[C@H]1CCOc2ccccc21)c1cnc2c(-c3cc(F)cc(F)c3F)csc2c1NC1CC1 [Compound 88]	> 30	
O=C(N[C@H]1CCOc2ccccc21)c1cnc2c(-c3cccc(C(F)(F)F)c3)csc2c1NC1CC1 [Compound 89]	> 30	
O=C(N[C@H]1CCOc2ccccc21)c1cnc2c(-c3cccc(C(F)(F)F)c3)csc2c1N1CCC1 [Compound 90]	> 30	
O=C(N[C@H]1CCOc2ccccc21)c1cnc2c(-c3cccc(F)c3F)csc2c1N1CC(F)C1 [Compound 91]	> 30	
O=C(N[C@H]1CCOc2ccccc21)c1cnc2c(-c3cc(F)cc(F)c3)csc2c1N1CC(F)C1 [Compound 92]	> 30	
O=C(N[C@H]1CCOc2ccccc21)c1cnc2c(-c3cccc(C(F)(F)F)c3)csc2c1N1CC(F)C1 [Compound 93]	> 30	
O=C(N[C@H]1CCOc2ccccc21)c1cnc2c(-c3cc(F)cc(F)c3F)csc2c1NCCO [Compound 94]	> 30	

Structure (SMILES)	EC50 [1] [µM]	other results
CN(CCO)c1c(C(=O)N[C@H]2CCOc3ccccc32)cnc2c(-c3cc(F)cc(F)c3F)csc12 [Compound 95]	> 30	
CN(C)c1c(C(=O)NC2COc3ccccc32)cnc2c(-c3cc(Cl)cc(Cl)c3)csc12 (centres unmarked) [Compound 96]	> 30	
CN(C)c1c(C(=O)N[C@H]2CCOc3ccccc32)cnc2c(-c3cccc(OC(F)(F)F)c3)csc12 [Compound 97]	> 30	
CN(C)c1cccc(-c2csc3c(N(C)C)c(C(=O)N[C@H]4CCOc5ccccc54)cnc23)c1 [Compound 98]	> 30	
O=C(N[C@H]1CCc2ccccc21)c1cnc2c(-c3cccc(Cl)c3Cl)csc2c1N1CC(F)C1 [Compound 99]	> 30	
O=C(N[C@@H]1COc2ccccc21)c1cnc2c(-c3cc(Cl)cc(Cl)c3)csc2c1N1CCOCC1 [Compound 100]	> 30	
O=C(N[C@H]1CCOc2ccccc21)c1cnc2c(-c3cc(Cl)cc(Cl)c3)csc2c1N1CC(F)C1 [Compound 101]	> 30	
Cc1sc2c(N(C)C)c(C(=O)N[C@H]3CCOc4ccccc43)cnc2c1-c1cc(F)cc(F)c1F [Compound 102]	> 30	inhibition in vivo at 10 mg/kg (Haemonchus contortus): ≥ 80%
Cc1sc2c(N(C)C)c(C(=O)N[C@H]3CCOc4ccccc43)cnc2c1-c1cc(F)cc(F)c1 [Compound 103]	> 30	
Cc1sc2c(N(C)C)c(C(=O)N[C@H]3CCOc4ccccc43)cnc2c1-c1cccc(C(F)(F)F)c1 [Compound 104]	> 30	
Cc1sc2c(N(C)C)c(C(=O)N[C@H]3CCOc4ccccc43)cnc2c1-c1cccc(OC(F)(F)F)c1 [Compound 105]	> 30	
Cc1sc2c(N3CCOCC3)c(C(=O)N[C@H]3CCOc4ccccc43)cnc2c1-c1cc(F)cc(F)c1F [Compound 106]	> 30	
Cc1sc2c(N3CCOCC3)c(C(=O)N[C@H]3CCOc4ccccc43)cnc2c1-c1cc(F)cc(F)c1 [Compound 107]	> 30	
Cc1sc2c(N3CCOCC3)c(C(=O)N[C@H]3CCOc4ccccc43)cnc2c1-c1cccc(C(F)(F)F)c1 [Compound 108]	> 30	
Cc1sc2c(N3CCOCC3)c(C(=O)N[C@H]3CCOc4ccccc43)cnc2c1-c1cccc(OC(F)(F)F)c1 [Compound 109]	> 30	
Cc1sc2c(N3CCOCC3)c(C(=O)N[C@H]3CCc4ccccc43)cnc2c1-c1cc(F)cc(F)c1F [Compound 110]	> 30	
Cc1sc2c(N3CCOCC3)c(C(=O)N[C@H]3CCc4ccccc43)cnc2c1-c1cc(F)cc(F)c1 [Compound 111]	> 30	
Cc1sc2c(N3CCOCC3)c(C(=O)N[C@H]3CCc4ccccc43)cnc2c1-c1cccc(C(F)(F)F)c1 [Compound 112]	> 30	
Cc1sc2c(N3CCOCC3)c(C(=O)N[C@H]3CCc4ccccc43)cnc2c1-c1cccc(OC(F)(F)F)c1 [Compound 113]	> 30	
